Reference: US4988723A, “Benzopyran derivatives and their use as anti-hypertensives” (Fujisawa Pharmaceutical Co., Ltd., priority 1988, dated 1991)

How the values were obtained:
[1] = tested on: normotensive rats (male Wistar strain); experiment: Effect on normotensive rats (hypotensive activity, mean arterial pressure after intravenous dosing); assay type: in vivo, rat; details: 1.0 mg/kg intravenously
Method: Male Wistar strain rats aged 10-11 weeks, weighing about 250 g were used after going unfed overnight. Under ether anesthesia, polyethylene cannula were inserted in the femoral artery for measuring blood pressure and in the femoral vein for injection of the test compound. About 2 hours after the operation, test compound was given intravenously. Blood pressure was measured at the femoral artery by means of a pressure transducer and recorded as electrically integrated values of mean arterial pressure.

[2] = tested on: spontaneous hypertensive rats; experiment: Effect on spontaneous hypertensive rats (hypotensive activity, mean blood pressure after oral dosing); assay type: in vivo, rat
Method: 14 to 17-week-old male spontaneous hypertensive rats with mean arterial blood pressure of about 150 mmHg, weighing 300-375 g, were used. The animals were cannulated in the left femoral artery and the mean blood pressure and heart rate were measured with a pressure-transducer. The drugs were given orally. The animals were deprived of food for about 18 hours before oral dosing. The test drugs were suspended in 0.5% methylcellulose, and given in oral dose of 0.1 mg/kg and 1.0 mg/kg.

Row | Structure (SMILES) | Effect Max (maximum decrease of blood pressure, mean ratio) [1] [%] | Effect max (maximum decrease of blood pressure, mean ratio) ([2]; 0.1 mg/kg orally) [%] | T 1/2 (duration of half of maximum decrease of blood pressure) ([2]; 0.1 mg/kg orally) [h] | Effect max (maximum decrease of blood pressure, mean ratio) ([2]; 1.0 mg/kg orally) [%] | T 1/2 (duration of half of maximum decrease of blood pressure) ([2]; 1.0 mg/kg orally) [h]
1 | CN1CCN([C@@H]2c3cc(C#N)ccc3OC(C)(C)[C@H]2O)C1=NC#N (relative stereo) [trans-4-(2-Cyanoimino-3-methylimidazolidin-1-yl)-3,4-dihydro-3-hydroxy-2,2-dimethyl-2H-1-benzopyran-6-carbonitrile] | 48.0 | – | – | – | –
2 | CC1(C)Oc2ccc(C#N)cc2[C@@H](N2CCSC2=NC#N)[C@@H]1O [(3S,4R)-4-(2-Cyanoiminothiazolidin-3-yl)-3,4-dihydro-3-hydroxy-2,2-dimethyl-2H-1-benzopyran-6-carbonitrile] | – | 20.7 | 2.25 | 60.0 | 3.75
